Measurements as given in patent publication US5843948A, “Piperazinophenyl- and piperazinophenyloxycarboxylic acid derivatives, and processes and intermediates for their preparation and pharmaceutical compositions comprising them” (Solvay Pharmaceuticals GmbH, priority 1996, dated 1998).

Biological target: T1, purified GP IIb/IIIa fibrinogen receptor from human blood platelets (Homo sapiens, UniProt P05106+P08514)
T1 construct: purified GP IIb/IIIa fibrinogen receptor from human blood platelets; from tissue; host or cells: human blood platelets
T1 sequence (P08514 32-887 limits assumed): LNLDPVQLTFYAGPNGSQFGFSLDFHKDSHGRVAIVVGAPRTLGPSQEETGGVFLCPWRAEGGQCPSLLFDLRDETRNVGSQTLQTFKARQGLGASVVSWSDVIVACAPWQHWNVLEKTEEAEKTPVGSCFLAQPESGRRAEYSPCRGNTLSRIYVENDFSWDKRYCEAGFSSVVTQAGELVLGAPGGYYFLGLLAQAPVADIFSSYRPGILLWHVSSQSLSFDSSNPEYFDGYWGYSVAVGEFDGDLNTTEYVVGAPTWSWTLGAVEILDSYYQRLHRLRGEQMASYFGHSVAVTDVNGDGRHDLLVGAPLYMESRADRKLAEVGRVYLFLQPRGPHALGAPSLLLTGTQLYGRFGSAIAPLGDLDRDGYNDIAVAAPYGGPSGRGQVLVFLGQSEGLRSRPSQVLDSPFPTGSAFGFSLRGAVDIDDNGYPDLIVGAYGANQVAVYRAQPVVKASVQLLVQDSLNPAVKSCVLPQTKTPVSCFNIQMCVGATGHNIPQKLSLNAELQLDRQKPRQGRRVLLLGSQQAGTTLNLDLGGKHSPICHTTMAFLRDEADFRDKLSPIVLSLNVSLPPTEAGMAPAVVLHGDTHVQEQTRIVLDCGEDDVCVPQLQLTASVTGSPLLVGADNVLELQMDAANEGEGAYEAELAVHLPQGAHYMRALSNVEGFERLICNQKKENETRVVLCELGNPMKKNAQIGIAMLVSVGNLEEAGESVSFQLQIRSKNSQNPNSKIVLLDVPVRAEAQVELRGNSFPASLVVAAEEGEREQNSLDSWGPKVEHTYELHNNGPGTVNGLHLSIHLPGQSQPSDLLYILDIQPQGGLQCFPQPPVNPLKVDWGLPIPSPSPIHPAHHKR
T1 sequence (P08514 891-1039 limits assumed): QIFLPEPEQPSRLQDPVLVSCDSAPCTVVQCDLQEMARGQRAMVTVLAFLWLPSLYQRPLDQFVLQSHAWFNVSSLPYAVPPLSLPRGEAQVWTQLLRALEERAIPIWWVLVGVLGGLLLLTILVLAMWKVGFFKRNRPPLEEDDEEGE
T1 sequence (P05106 27-788): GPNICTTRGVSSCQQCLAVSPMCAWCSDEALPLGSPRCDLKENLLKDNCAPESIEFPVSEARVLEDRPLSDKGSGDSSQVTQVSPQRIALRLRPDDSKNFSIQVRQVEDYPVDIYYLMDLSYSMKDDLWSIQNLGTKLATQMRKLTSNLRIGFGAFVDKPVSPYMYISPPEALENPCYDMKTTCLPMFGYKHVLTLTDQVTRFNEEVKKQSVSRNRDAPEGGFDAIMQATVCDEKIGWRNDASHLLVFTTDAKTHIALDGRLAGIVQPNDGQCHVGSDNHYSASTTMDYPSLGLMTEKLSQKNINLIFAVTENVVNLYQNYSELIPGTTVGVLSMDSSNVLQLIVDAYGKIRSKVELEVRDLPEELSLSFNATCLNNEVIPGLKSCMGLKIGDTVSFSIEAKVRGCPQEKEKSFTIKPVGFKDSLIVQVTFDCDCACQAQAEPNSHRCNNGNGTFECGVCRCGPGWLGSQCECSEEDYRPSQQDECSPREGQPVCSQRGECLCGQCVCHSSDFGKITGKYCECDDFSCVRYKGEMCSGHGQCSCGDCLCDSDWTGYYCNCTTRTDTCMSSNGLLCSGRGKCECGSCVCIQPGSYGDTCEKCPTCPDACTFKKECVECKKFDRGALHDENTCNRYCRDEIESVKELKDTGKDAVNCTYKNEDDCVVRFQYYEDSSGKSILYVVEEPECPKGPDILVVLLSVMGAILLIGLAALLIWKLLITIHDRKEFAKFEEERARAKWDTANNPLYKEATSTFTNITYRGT
Experiment: Inhibition of fibrinogen binding to GP IIb/IIIa, solid phase enzyme immunoassay of the ELISA type (Kouns et al.)
Settings: purified human plasma fibrinogen 20 μg/ml, 37° C., 2 hours, read-out: pIC50 (negative common logarithm of the IC50 for inhibition of the specific fibrinogen binding of GP IIb/IIIa) (converted)
Description: The inhibitory action of the substances of the formula I on the fibrinogen binding to the fibrinogen receptor of the blood platelets, the GP IIb/IIIa, was detected in a solid phase enzyme immunoassay of the ELISA type ("Enzyme-Linked Immunosorbent Assay") according to the method described by Kouns et al. (Blood 80 (1992) 2539-2547).
A solution of purified GP IIb/IIIa fibrinogen receptor from human blood platelets (1 μg/ml in phosphate-buffered physiological saline solution, pH 7.4) was applied in portions of 100 μl/sample position to a microtitre plate and allowed to stand at 4° C. for 18 hours. Excess receptor reagent was washed off by a standard wash (3 times 350 μl of wash buffer solution/sample position: 0.01% (v/v) Tween 80 in phosphate-buffered physiological saline solution) and unoccupied residual protein binding sites were occupied by a blocking reagent [300 μl/sample position of an aqueous receptor buffer solution: 20 mmole/liter of tris(hydroxymethyl)aminomethane, 150 mmole/liter of NaCl, 1 mmole/liter of MgCl2, 1 mmole/liter of CaCl2; treated with 5% (w/v) bovine serum albumin (BSA)]. The mixture was incubated at 37° C. for 2 hours and excess blocking reagent was removed.
Purified human plasma fibrinogen [100 μl/sample position of a 20 μg/ml solution in test buffer. Test buffer=receptor buffer mixed with 1% (w/v) BSA] was then added together with the test substance dissolved therein (concentration dependent on the test substance) and incubated at 37° C. for 2 hours. Unbound fibrinogen was removed by standard washing and the incubation was continued for a further hour at room temperature after addition of biotinylated rabbit antibodies against human fibrinogen (100 μl/sample position in optimum use dilution, dissolved in test buffer) . After a further standard wash, horseradish peroxidase-conjugated streptavidin (1:2000, in suitable dilution in test buffer) was added, and the mixture was incubated again at room temperature for one hour, followed by a further standard wash.
Finally, the peroxidase substrate 2,2'-azinodi-(3-ethylbenzothiazolinesulfonate) (abbreviated below as ABTS), (100 μl/sample position of a solution of 0.4 g/liter of ABTS in 0.1 mole/liter of citric acid buffer, adjusted to pH 4 using 0.4 mole/liter of NaH2 PO4 ·2 H2 O), treated with 0.003% (w/v) hydrogen peroxide, was added and the extinction of the mixture was measured at 405 nm at 5 minute intervals for twenty minutes.
The peroxidase activity was determined from the measurements as the increase in the extinction with time. It was used to calculate the total fibrinogen binding and also the non-specific fibrinogen binding. The non-specific fibrinogen binding was determined without addition of the GP IIb/IIIa. The specific fibrinogen binding could be calculated from these two values. The effect of the test substances was expressed in IC50 values, which were obtained by interpolation from concentration-dependent measuring curves. The IC50 is that concentration in μmole/liter at which a test substance inhibits the specific fibrinogen binding of GP IIb/IIIa by 50%. The following Table 1 presents the IC50 values found for the test substance as negative common logarithms, the pIC50 values. The example numbers relate to the subsequent preparation examples.

IC50 | Compound
1.58 nM | N=C(N)c1ccc(N2CCN(c3ccc(OCC(=O)O)cc3)CC2)cc1 [Example 2a, 4-[4-(4-Amidinophenyl)-1-piperazinyl]-phenoxyacetic acid]
28.2 nM | N=C(N)c1ccc(N2CCN(c3ccc(CCC(=O)O)cc3)CC2)cc1 [Example 12]

Second part, the molecule before the results:

Compound | IC50
N=C(N)c1ccc(N2CCN(c3ccc(OCC(=O)O)cc3)CC2)nc1 [Example 6, 4-{4-[2-(5-Amidinopyridyl)]-1-piperazinyl}-phenoxyacetic acid] | 1.55 nM
COC(=O)COc1ccc(N2CCN(c3ccc(C(=N)N)cn3)CC2)cc1 [Example 7, Methyl 4-{4-[2-(5-amidinopyridyl)]-1-piperazinyl}phenoxyacetate] | 36.3 nM
N=C(N)c1ccc(N2CCN(c3ccc(CCC(=O)O)cc3)CC2)nc1 [Example 10, 3-{4-[4-(2-(5-Amidinopyridyl))-1-piperazinyl]-phenyl}propionic acid] | 30.2 nM
